Results from PMC7762498, “Demethoxycurcumin analogue DMC-BH exhibits potent anticancer effects on orthotopic glioblastomas” (Aging (Albany NY), 2020).
Read-outs that look alike come from different tables or passages of the source.

Tests used:
[1] = Octanol-water partition coefficient; assay type: physicochemical
From the text: To determine whether DMC-BH inhibits the growth of glioma in the brain, we assessed its octanol-water partition coefficients and BBB penetrability. The hydrophobic parameters (logP) of DMC-BH and DMC were estimated under physiological as well as in acidic and basic conditions. The logP values for DMC-BH were negative at pH 2.5 and pH 9.0, as it was an amphoteric compound. At low pH or high pH conditions, DMC-BH occurred in the form of salts, and its logP values became negative due to better solubility.
Figure 2 Octanol-water partition coefficients (logP) and BBB penetrability of DMC-BH. (A) The logP was defined as log(Coctanol/Cwater). The amount of the compound in the water phase was determined spectrophotometrically, and the amount in the octanol phase was obtained by subtracting the supernatant concentration from the total concentration. (B) The BBB penetrability was defined as a brain-to-plasma AUC(time point) ratio. Values are expressed as the means ± SEM of 3 independent experiments.
The partition coefficient (P) between n-octanol and water was determined. The buffer mixture (0.05 M citric buffer, pH 2.5; 0.05 M acetic acid buffer, pH 5.5; 5 mM PBS, pH 7.4; or 0.05 M bicarbonate buffer, pH 9.0) and n-octanol was pre-equilibrated overnight at room temperature. After addition of the DMC or DMC-BH, the mixture was vortexed for 10 minutes and incubated at room temperature for an additional 15 minutes before centrifugation at 1000 g for 5 minutes. The amount of the compound in water phase was determined spectrophotometrically using standard curves, and the amount in lipid phase was obtained by subtracting the supernatant concentration from the total concentration, measured before mixing of the phases. P was determined according to P = (noct/Voct)/(nw/Vw), where n denotes the number of compound moles, V is the volume and the subscripts oct and w refer to n-octanol and aqueous phase, respectively.

[2] = test system: SHG-44 glioma cells; assay: MTT cell viability assay, SHG-44; assay type: cell-based; conditions: Homo sapiens, SHG-44 cells, 72 hours
Procedure: (§1) To investigate the cytotoxicity of DMC-BH on glioma cells (Figure 1A), we used an MTT assay to assess viability changes in SHG-44, C6, U251, U87, A172 and primary glioma cells treated with various concentrations of DMC-BH for 24, 48 or 72 hours (Figure 1B–1H). […] U251 and SHG-44 cells were more sensitive to DMC-BH. We then used the human glial cell line, HEB, to evaluate the toxicity of DMC-BH in normal cells. […] DMC-BH was not toxic to normal cells.
(§2) The human GBM U87-luc cell line was purchased from the Shanghai Sunbio Medical Biotechnology Co., Ltd. (Shanghai, China). Cells were cultured in DMEM supplemented with 10% fetal bovine serum (FBS) and maintained in an incubator at 37° C and 5% CO2. After cells were routinely passaged at 2- to 3-day intervals, animal experiments were carried out when the cells entered exponential growth phase. Rat C6, human SHG-44, U87, A172 and U251 glioma cells were obtained from the Shanghai Institute of Cell Biology, Chinese Academy of Sciences (Shanghai, China). Primary glioma cells were preserved by our laboratory from previous studies. […]
(§3) Glioblastoma cells were seeded into 96-well plates and exposed to vehicle (PBS) or different concentrations of DMC-BH for 24, 48 or 72 hours. Cell viability was measured using an MTT assay and was expressed as a ratio to the absorbance value of the control cells at 570 nm.

[3] = test system: primary glioma cells; assay: MTT cell viability assay, primary glioma cells; assay type: cell-based; conditions: 72 h
Procedure: as §1, §2, §3

[4] = test system: U87 glioma cells; assay: MTT cell viability assay, U87; assay type: cell-based; conditions: Homo sapiens, U-87 MG, 72 hours
Procedure: as §1, §2, §3

[5] = Plasma protein binding; assay type: in vitro ADME
[6] = test system: C6 glioma cells; assay: MTT cell viability assay, C6; assay type: cell-based; conditions: Rattus norvegicus, 72 hours
Procedure: as §1, §2, §3

[7] = test system: glioblastoma multiforme (GBM) patient derived tumors; assay: Patient-derived tumor xenograft (PDTX) model; assay type: in vivo, mice
From the text: In recent years, PDTX models have been used to mimic human tumors. These models are more clinically relevant than cell line-based xenograft models. Thus, we performed an in vivo study in a PDTX tumor model by implanting human glioma samples from a patient donor into B-NDG mice (Figure 7A).
Figure 7 In vivo anti-tumor activity of DMC-BH in the PDTX tumor model. (A) A scheme illustrating the process of creating the patient-derived tumor model. (B) Tumor growth curves of mice after treatment with 7.5 mg/kg, 15 mg/kg or 30 mg/kg DMC-BH or 20 mg/kg TMZ. (C) Average tumor weight at day 21 after different treatments. (D) Quantification of the Ki67-positive area in different treatment groups. (E) Representative H&E-stained tumor slices and Ki67 immunofluorescence labeled tumor tissue sections from different treatments groups. The data are shown as mean ± SD (n = 6).
Surgically resected human glioma tissue was obtained from a cancer patient (#0407002) following an approved Nanjing Medicinal University Institutional Review Board protocol. Within 2 hours of surgical resection, tumor tissues were cut into 1-2 mm fragments and implanted into SCID mice (B-NDG, 6 weeks old, female) using a surgical procedure approved by Nanjing Medicinal University Institutional Animal Care and Use committee. After surgery, tumor growth in the mice was monitored by palpating the abdomen twice per week. Tumors grew to 5-10 mm in diameter in about 8-10 weeks. The SCID mice bearing PDTX tumors were sacrificed, and tumor fragments of 1 to 2 mm in size were implanted into 6-week-old female SCID mice. Over 60% of the mice experienced tumor growth in approximately 6 weeks.

[8] = B-NDG mice, DMC-BH 7.5, 15 or 30 mg/kg, TMZ 20 mg/kg

## COc1cc(C=CC(=O)CC(=O)C=Cc2ccc(O)c(CN3CCCC3)c2)ccc1O [DMC-BH, 1-[4-Hydroxy-3-(pyrrolidin-1-ylmethyl)phenyl]-7-(4-hydroxy-3-methoxyphenyl) hepta-1,6-diene-3,5-dione]
[1]; n-octanol/water (buffer), pH 7.4, n-octanol/water, read-out: logP
  logP: 3.26
[1]; pH 2.5, n-octanol/water
  logP: negative
[1]; pH 9.0, n-octanol/water
  logP: negative
[2]
  IC50: 3.08 µM
[3]; primary glioma cells sample 1, 72 hours
  IC50: 8.05 µM
[3]; primary glioma cells sample 2, 72 hours
  IC50: 4.61 µM
[4]
  IC50: 4.77 µM
[5]
  fraction unbound: 0.038
[6]
  IC50: 5.79 µM
[7]; [8]
  tolerability in PDTX model: tolerated
  tumor growth in PDTX model: significant tumor regression
[7]; PDTX tumor, 20 mg/kg, compared with the control tumor
  number of Ki67-positive cells in tumor: marked decrease
